GI50 and TGI data for six compounds are collected here from PubChem BioAssay (NCI).

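Protocol summary: plate cells (96-well), add compound at 5 concentrations, incubate 48 h, interpolate endpoints linearly. At the GI50, growth is halved. TGI is the concentration that stops growth completely.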 Some results are limits rather than exact numbers.

Some test systems named below: LXFL 529 NSCLC; SNB-78 CNS; P388/ADR leukemia; SN12K1 renal; XF 498 CNS; M19-MEL melanoma; DMS 114 small cell lung; P388 leukemia.
Common to all, as to assay: NCI tumour cell line growth inhibition, 48 h

`N.N.NCCCCN.O=C([O-])CCl.O=C([O-])CCl.O=C([O-])CCl.O=C([O-])CCl.[Pt+4].[Pt+4]`: in the test on LXFL 529 NSCLC, the GI50 is greater than 50 µM and the TGI is greater than 50 µM. In the test on SNB-78 CNS, the GI50 is greater than 50 µM and the TGI was greater than 50 µM.
As to `O=C1CCCn2c3ccccc3c3ccnc1c32`, the TGI in the test with P388/ADR leukemia is greater than 100 µM; with SNB-78 CNS it was greater than 100 µM; with SN12K1 renal it was greater than 100 µM; in the test with XF 498 CNS, 74.5 µM; in the test with M19-MEL melanoma, greater than 100 µM; in the test on DMS 114 small cell lung it was greater than 100 µM. The compound also had a TGI with P388 leukemia greater than 93.9 µM.
Turning to `c1ccc(C[P+]2(c3ccccc3)CCCCC2)cc1`, the TGI in the test with LXFL 529 NSCLC is greater than 100 µM; in the test with SNB-78 CNS, greater than 100 µM; in the test on XF 498 CNS, 98.2 µM; with M19-MEL melanoma, greater than 100 µM; in the test with DMS 114 small cell lung it was greater than 100 µM.
`CC1(C)OC2C(CO)OC(/N=C(\NC#N)Oc3ccccc3)C2O1` (stereo not drawn): the TGI in the test with LXFL 529 NSCLC, in the test with SNB-78 CNS, in the test on XF 498 CNS, in the test with M19-MEL melanoma and in the test with DMS 114 small cell lung was greater than 100 µM throughout.
Take `CC12CCC3=C(CSC4=C3CSc3ccccc34)C1=CCCC2=O` (stereo not drawn): the TGI with LXFL 529 NSCLC was greater than 100 µM; in the test on XF 498 CNS, 87.3 µM; with M19-MEL melanoma, greater than 100 µM; with DMS 114 small cell lung, greater than 100 µM.
On to `COc1ccc(/C=N/N=C(N)N)c(C(=O)O)c1OC`, for which the TGI in the test with LXFL 529 NSCLC, in the test on SNB-78 CNS and with DMS 114 small cell lung was greater than 100 µM throughout.
